Source: article PMC8596838, “Xylose‐Configured Cyclophellitols as Selective Inhibitors for Glucocerebrosidase” (Chembiochem, 2021)

Assays:
[1] = target: T1, GBA2 (Homo sapiens, UniProt Q9HCG7); assay: ABP labeling of β-D-glucosidases in HEK293T cell lysate, GBA2; type: biochemical; conditions: 30 min, pH 6.0
T1 construct: expressed in transfected cells; host or cells: HEK293T (GBA/GBA2 KO background for the fluorogenic assay; endogenous-GBA background with GBA2 and GBA3 overexpressed for ABPP and intact-cell assays)
T1 sequence (Q9HCG7 1-927): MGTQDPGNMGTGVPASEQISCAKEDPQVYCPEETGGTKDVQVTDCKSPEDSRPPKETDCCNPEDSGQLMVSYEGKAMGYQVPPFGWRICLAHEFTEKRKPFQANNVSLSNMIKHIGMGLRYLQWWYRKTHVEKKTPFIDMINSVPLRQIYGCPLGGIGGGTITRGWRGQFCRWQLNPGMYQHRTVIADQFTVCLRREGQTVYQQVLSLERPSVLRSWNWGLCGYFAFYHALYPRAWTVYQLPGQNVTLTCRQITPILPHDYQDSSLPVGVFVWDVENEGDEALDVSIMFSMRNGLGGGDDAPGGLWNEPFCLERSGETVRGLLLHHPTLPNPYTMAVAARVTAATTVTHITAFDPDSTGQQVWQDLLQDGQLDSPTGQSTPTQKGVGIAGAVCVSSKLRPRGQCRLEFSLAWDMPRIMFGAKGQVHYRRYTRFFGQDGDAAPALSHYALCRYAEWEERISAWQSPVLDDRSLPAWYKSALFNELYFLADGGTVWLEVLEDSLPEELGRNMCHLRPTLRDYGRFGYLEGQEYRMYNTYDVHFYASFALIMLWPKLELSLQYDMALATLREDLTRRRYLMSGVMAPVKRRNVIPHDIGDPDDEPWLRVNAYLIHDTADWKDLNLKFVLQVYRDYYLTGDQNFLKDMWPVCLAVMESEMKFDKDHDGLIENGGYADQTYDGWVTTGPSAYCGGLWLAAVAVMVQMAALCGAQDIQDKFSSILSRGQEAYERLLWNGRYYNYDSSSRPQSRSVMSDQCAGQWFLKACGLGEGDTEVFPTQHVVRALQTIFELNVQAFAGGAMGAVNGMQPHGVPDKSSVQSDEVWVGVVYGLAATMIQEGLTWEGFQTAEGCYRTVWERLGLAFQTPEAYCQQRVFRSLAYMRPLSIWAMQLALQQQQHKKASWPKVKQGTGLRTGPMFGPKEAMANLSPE
Method: (§1) We next investigated, by ABPP, the GBA/GBA2/GBA3 activity and selectivity of β‐D‐xylo‐cyclophellitol aziridine ABPs 6 and 8 in comparison to those of GBA‐specific ABP 9 [31] or ABP 10.
(§2) Figure 4 (A) ABP labeling of β‐D‐glucosidases. A lysate of HEK293T cells expressing human GBA, GBA2 and GBA3 was incubated with indicated ABPs (6, 9 or 10) for 30 min at pH 6.0. Fluorescently labeled proteins were visualized after SDS‐PAGE. (B) Labeling with ABP 6 of wild type or mutant GBA2 (E527G nucleophile mutation and D667G acid/base mutation) expressed in HEK293T cells.
(§3) ABP labeling procedure: Glycosidases were labeled with excess fluorescent ABPs at optimum conditions. […] After ABP incubation, proteins were denatured by boiling the samples with 5× Laemmli buffer (50 % (v/v) 1 M Tris‐HCl, pH 6.8, 50 % (v/v) 100 % glycerol, 10 % (w/v) DTT, 10 % (w/v) SDS, 0.01 % (w/v) bromophenol blue) for 5 min at 98 °C, and separated by electrophoresis on 10 % (w/v) SDS‐PAGE gels running continuously at 90 V. Wet slab‐gels were scanned on fluorescence using the Typhoon FLA 9500 (GE Healthcare) at λEX 473 nm and λEM≥510 nm for green fluorescent ABP 8; and at λEX 635 nm and λEM≥665 nm for ABP 6, 9 and 10. ABP‐emitted fluorescence was quantified using ImageQuant software (GE Healthcare, Chicago, IL, USA) and curve‐fitted using Prism 8.0 (GraphPad Software). […]

[2] = target: T2, GBA3 (Homo sapiens, UniProt Q9H227); assay: ABP labeling of β-D-glucosidases in HEK293T cell lysate, GBA3; type: biochemical; conditions: 30 min, pH 6.0
T2 construct: expressed in transfected cells; host or cells: HEK293T (GBA/GBA2 KO background for the fluorogenic assay; endogenous-GBA background with GBA2 and GBA3 overexpressed for ABPP and intact-cell assays)
T2 sequence (Q9H227 1-469): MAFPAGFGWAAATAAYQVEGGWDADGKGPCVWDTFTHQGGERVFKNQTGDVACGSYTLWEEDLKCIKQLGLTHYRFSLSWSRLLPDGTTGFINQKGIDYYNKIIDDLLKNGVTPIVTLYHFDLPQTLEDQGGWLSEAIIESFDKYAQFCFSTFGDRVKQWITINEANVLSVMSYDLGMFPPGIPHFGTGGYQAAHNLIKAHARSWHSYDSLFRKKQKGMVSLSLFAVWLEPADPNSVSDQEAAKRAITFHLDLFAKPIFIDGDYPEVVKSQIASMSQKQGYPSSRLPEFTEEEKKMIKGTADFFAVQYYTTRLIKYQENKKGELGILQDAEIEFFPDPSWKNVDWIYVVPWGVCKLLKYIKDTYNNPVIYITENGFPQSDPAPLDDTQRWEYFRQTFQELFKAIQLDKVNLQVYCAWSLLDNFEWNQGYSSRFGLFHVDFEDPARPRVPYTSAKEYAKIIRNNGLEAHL
Method: as §1, §2, §3

SMILES: CN1/C(=C/C=C/C=C/C2=[N+](CCCCCC(=O)NCc3cn(CCCCCCCCN4[C@H]5[C@H](O)[C@@H](O)[C@H](O)C[C@H]54)nn3)c3ccccc3C2(C)C)C(C)(C)c2ccccc21 (some centres unmarked) [ABP 6]
- labeling pattern of GBA and GBA2 [1]: very similar to that of the broad‐specific β‐D‐glucosidase ABP 10
- labeling of GBA3 compared with ABP 10 [2]: tenfold less efficiently
